Source: patent US9241488B2, “Azole derivative, method for producing azole derivative, and intermediate compound” (KUREHA CORPORATION, priority 2011, dated 2016)
Like-named read-outs stand apart in the source and are kept apart here.

Legend:
[1] = system: wheat brown rust-causing microorganisms; assay: Controlling effect on wheat brown rust caused by seed treatment (pot test); format: in vivo, Puccinia recondita; conditions: 2 mg compound per 1 g wheat seeds, inoculated 21 days after seeding, evaluated 14 days after inoculation
Protocol: An efficacy against wheat brown rust was evaluated by performing a pot test. […] The pots were kept in a greenhouse with supplying water underneath. Twenty one days after the seeding, wheat brown rust-causing microorganisms was inoculated, and the pots were stored in a humidity chamber for 2 days. The pots were kept again in a greenhouse with supplying water underneath. Fourteen days after the inoculation, a lesion degree was evaluated, and a protective value was calculated. The protective value was calculated with use of the following formula, and was defined as a wheat brown rust protective value. Protective value=(1−lesion degree in treated plot/lesion degree in untreated plot)×100(%)

wheat [2] = assay: Harmful effect of necrosis to wheat caused by seed treatment (pot test); format: in vivo; conditions: 2 mg compound per 1 g wheat seeds, 31 days after seeding, smaller index = smaller harmful effect
Protocol: Thirty one days after the seeding, a degree of necrosis (necrosis area ratio) in wheat was evaluated. By using criteria shown in Table 7, necrosis indexes were calculated on the basis of the necrosis area ratio.

[3] = system: wheat-brown-rust-causing microorganisms; assay: Controlling effect on wheat brown rust (spray, pot test); format: in vivo, Puccinia recondita; conditions: 1 mg/L sprayed at 1,000 L/ha, wheat NORIN No. 61, 9 to 14 days after inoculation
Procedure, shortened: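 Two-leaf wheat (NORIN No. 61) sprayed with formulation at 1 mg/L, 1,000 L/ha, then spray-inoculated with rust spores and held 48 hours at 25° C, high humidity, then greenhouse.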

[4] = system: Rice bacterial seeding blight (Rhizopus oryzae); assay: Anti-bacterial effect on various microorganisms (plate medium), R.o; format: cell-based
[5] = system: Wheat pink snow mold (Microdochium nivale); assay: Anti-bacterial effect on various microorganisms (plate medium), M.n; format: cell-based
wheat [6] = assay: Growth inhibition test for wheat caused by seed treatment (pot test); conditions: 2 mg compound per 1 g wheat seeds, 36 days after seeding, larger index = smaller damage
Protocol: Harmful effect (growth inhibition) to wheat was evaluated by performing a pot test. Compounds (2 mg) of the present invention and a comparative compound (2 mg) were weighed, and those compounds were each dissolved in DMSO (18 μl). Chemical thus prepared were applied to wheat seeds (1 g) in a vial, and eight wheat seeds were seeded in a pot of 80 cm^2. The seeds were cultivated in a greenhouse with supplying water underneath. 36 days after the seeding, damage (growth inhibition) was evaluated.
The damage (growth inhibition) index was calculated on the basis of the following table. As the growth inhibition index becomes larger, the damage of growth inhibition caused by the treatment of the chemicals becomes smaller.

[7] = system: wheat leaf blight-causing microorganisms; assay: Anti-bacterial effect on wheat leaf blight-causing microorganisms (PDA plate, mycelial growth inhibition); format: cell-based, Septoria tritici; conditions: 1.25 mg/L in PDA plate medium, 25° C., 14 days; for inhibition at 1.25 µg/mL: 336 h, read-out: Growth inhibition grade
[8] = system: Swollen rice seedling (Rhizopus oryzae); assay: Anti-bacterial effect of V′ compounds on various microorganisms (plate medium), R.o; format: cell-based; conditions: 5 mg/L
[9] = system: Rice blast (Pyricularia oryzae); format: cell-based; conditions: 5 mg/L
[10] = system: Snow mold of winter wheat (Microdochium nivale); assay: Anti-bacterial effect of V′ compounds on various microorganisms (plate medium), M.n; format: cell-based; conditions: 5 mg/L
[11] = system: Barley leaf blotch (Rhynchosporium secalis); assay: Anti-bacterial effect of V′ compounds on various microorganisms (plate medium), R. sec; format: cell-based; conditions: 5 mg/L
[12] = system: Wheat leaf blight (Septoria tritici); assay: Anti-bacterial effect of V′ compounds on various microorganisms (plate medium), S.t; format: cell-based; conditions: 5 mg/L
[13] = system: Wheat Septoria nodorum blotch microorganism (Phaeosphaeria nodorum); assay: Anti-bacterial effect of V′ compounds on various microorganisms (plate medium), P.n; format: cell-based; conditions: 5 mg/L
[14] = system: Barley stripe (Pyrenophora graminea); assay: Anti-bacterial effect of V′ compounds on various microorganisms (plate medium), P.g; format: cell-based; conditions: 5 mg/L
G.g = assay: Anti-bacterial effect of V′ compounds on various microorganisms (plate medium), G.g; format: cell-based; conditions: 5 mg/L
[15] = system: Wheat fusarium blight (Fusarium graminearum); format: cell-based
[16] = system: Rice bakanae disease (Giberella fujikuroi); assay: Anti-bacterial effect on various microorganisms (plate medium), G.f; format: cell-based
[17] = system: Gray mold (Botritis cinerea); assay: Anti-bacterial effect on various microorganisms (plate medium), B.c; format: cell-based
[18] = system: Cucumber fusarium wilt (Fusarium oxysporum); assay: Anti-bacterial effect on various microorganisms (plate medium), F.c; format: cell-based
[19] = system: Barley loose smut (Ustilago nuda); assay: Anti-bacterial effect on various microorganisms (plate medium), U.n; format: cell-based
[20] = system: Sclerotinia rot (Sclerotinia sclerotiorum); assay: Anti-bacterial effect on various microorganisms (plate medium), S.s; format: cell-based
[21] = system: Alternaria blotch (Alternaria alternata); assay: Anti-bacterial effect on various microorganisms (plate medium), A.m; format: cell-based
[22] = system: Barley leaf blotch (Rhynchosporium secalis); assay: Anti-bacterial effect on various microorganisms (plate medium), R. sec; format: cell-based
[23] = system: Wheat eye spot (Pseudocercoporella herpotrichoides); assay: Anti-bacterial effect on various microorganisms (plate medium), P.h; format: cell-based
[24] = system: Rice blast (Pyricularia oryzae); format: cell-based
[25] = system: Wheat Septoria nodorum blotch microorganism (Phaeosphaeria nodorum); assay: Anti-bacterial effect on various microorganisms (plate medium), P.n; format: cell-based

Q: Which results are given for CC1(C)CC[C@H](Cc2ccc(Cl)cc2)[C@@]1(O)Cn1cncn1 (racemic) [Compound (1), reference compound]?
A: wheat brown rust protective value [1]: 95%; necrosis index (wheat [2]): 1 (1% or more but less than 5%); Protective value [3]: 3 (41 to 60); inhibition at 1.25 µg/mL ([4]; Rhizopus arrhizus, 1.25 mg/L, read-out: Growth inhibition grade R.o): 60 to 80%; inhibition at 5 µg/mL ([4]; Rhizopus arrhizus, 5 mg/L, read-out: Growth inhibition grade R.o): > 80%; inhibition at 1.25 µg/mL ([5]; Microdochium nivale, 1.25 mg/L, read-out: Growth inhibition grade M.n): 20 to 40%; inhibition at 5 µg/mL ([5]; Microdochium nivale, 5 mg/L, read-out: Growth inhibition grade M.n): > 80%; damage (growth inhibition) index (wheat [6]): 2 (Less than 60% but 40% or more); inhibition at 1.25 µg/mL [7]: 60 to 80%

Q: How did the “Anti-bacterial effect index against various microorganisms R.o” value [8] turn out when CC1(C)OCC2(CCC(Cc3ccc(Cl)cc3)C2(O)Cn2cncn2)CO1 (stereo not drawn) [Compound V′-a-cis, 2-(4-chlorobenzyl)-8,8-dimethyl-1-[1,2,4]triazole-1-ylmethyl-7,9-dioxaspiro[4,5]decane-1-ol] was run?
A: 5 (% Mycerial growth inhibition of 80% or higher)

Q: What about the “Anti-bacterial effect index against various microorganisms P.o” value [9] of the same compound?
A: 5 (% Mycerial growth inhibition of 80% or higher)

Q: What about the “Anti-bacterial effect index against various microorganisms M.n” value [10] of the same compound?
A: 5 (% Mycerial growth inhibition of 80% or higher)

Q: And the “Anti-bacterial effect index against various microorganisms R. sec” value [11]?
A: 5 (% Mycerial growth inhibition of 80% or higher)

Q: What about the “Anti-bacterial effect index against various microorganisms S.t” value [12] of the same compound?
A: 5 (% Mycerial growth inhibition of 80% or higher)

Q: And the “Anti-bacterial effect index against various microorganisms P.n” value [13]?
A: 5 (% Mycerial growth inhibition of 80% or higher)

Q: And the “Anti-bacterial effect index against various microorganisms P.g” value [14]?
A: 5 (% Mycerial growth inhibition of 80% or higher)

Q: And the “Anti-bacterial effect index against various microorganisms G.g” value (G.g)?
A: 5 (% Mycerial growth inhibition of 80% or higher)

Q: And the inhibition at 1.25 µg/mL [7]?
A: > 80%

Q: Which results are given for CC1OCC2(CCC(Cc3ccc(Cl)cc3)C2(O)Cn2cncn2)CO1 (stereo not shown) [Compound V′-e, 2-(4-chlorobenzyl)-8-methyl-1-(1H-1,2,4-triazole-1-ylmethyl)-7,9-dioxaspiro[4,5]decane-1-ol]?
A: Anti-bacterial effect index against various microorganisms R.o [8]: 5 (% Mycerial growth inhibition of 80% or higher); Anti-bacterial effect index against various microorganisms P.o [9]: 5 (% Mycerial growth inhibition of 80% or higher); wheat brown rust protective value [1]: 100%; Anti-bacterial effect index against various microorganisms M.n [10]: 5 (% Mycerial growth inhibition of 80% or higher); Anti-bacterial effect index against various microorganisms R. sec [11]: 5 (% Mycerial growth inhibition of 80% or higher); Anti-bacterial effect index against various microorganisms S.t [12]: 5 (% Mycerial growth inhibition of 80% or higher); Anti-bacterial effect index against various microorganisms P.n [13]: 5 (% Mycerial growth inhibition of 80% or higher); Anti-bacterial effect index against various microorganisms P.g [14]: 5 (% Mycerial growth inhibition of 80% or higher); Anti-bacterial effect index against various microorganisms G.g (G.g): 5 (% Mycerial growth inhibition of 80% or higher); inhibition at 1.25 µg/mL [7]: > 80%

Q: For OC1(Cn2cncn2)C(Cc2ccc(Cl)cc2)CCC12COCOC2 (stereo not shown) [Compound V′-d, 2-(4-chlorobenzyl)-1-(1H-1,2,4-triazole-1-ylmethyl)-7,9-dioxaspiro[4,5]decane-1-ol], which “Anti-bacterial effect index against various microorganisms R.o” value [8] is on record?
A: 5 (% Mycerial growth inhibition of 80% or higher)

Q: What about the “Anti-bacterial effect index against various microorganisms P.o” value [9] of the same compound?
A: 5 (% Mycerial growth inhibition of 80% or higher)

Q: And the “wheat brown rust protective value” [1]?
A: 100%

Q: What about the Protective value [3] of the same compound?
A: 4 (61 to 80)

Q: And the “Anti-bacterial effect index against various microorganisms M.n” value [10]?
A: 3 (% Mycerial growth inhibition of less than 60 to 40% or higher)

Q: What about the “Anti-bacterial effect index against various microorganisms R. sec” value [11] of the same compound?
A: 5 (% Mycerial growth inhibition of 80% or higher)

Q: What about the “Anti-bacterial effect index against various microorganisms S.t” value [12] of the same compound?
A: 4 (% Mycerial growth inhibition of less than 80 to 60% or higher)

Q: What about the “Anti-bacterial effect index against various microorganisms P.n” value [13] of the same compound?
A: 5 (% Mycerial growth inhibition of 80% or higher)

Q: What about the “Anti-bacterial effect index against various microorganisms P.g” value [14] of the same compound?
A: 5 (% Mycerial growth inhibition of 80% or higher)

Q: What about the “Anti-bacterial effect index against various microorganisms G.g” value (G.g) of the same compound?
A: 5 (% Mycerial growth inhibition of 80% or higher)

Q: For COC[C@]1(CCl)CC[C@@H](Cc2ccc(Cl)cc2)[C@]1(O)Cn1cncn1 (racemic) [Compound I-16a, (1RS,2RS,5SR)-5-(4-chlorobenzyl)-2-chloromethyl-2-methoxymethyl-1H-[1,2,4]triazole-1-ylmethylcyclopentanol], which “Growth inhibition grade F.g” value ([15]; 1.25 mg/L) is on record?
A: 5 (% Mycerial growth inhibition of 80% or higher)

Q: And the “Growth inhibition grade F.g” value ([15]; 5 mg/L)?
A: 5 (% Mycerial growth inhibition of 80% or higher)

Q: What about the “Growth inhibition grade G.f” value ([16]; 1.25 mg/L) of the same compound?
A: 5 (% Mycerial growth inhibition of 80% or higher)

Q: And the “Growth inhibition grade G.f” value ([16]; 5 mg/L)?
A: 5 (% Mycerial growth inhibition of 80% or higher)

Q: And the “Growth inhibition grade B.c” value ([17]; 1.25 mg/L)?
A: 5 (% Mycerial growth inhibition of 80% or higher)

Q: And the “Growth inhibition grade B.c” value ([17]; 5 mg/L)?
A: 5 (% Mycerial growth inhibition of 80% or higher)

Q: What about the “wheat brown rust protective value” [1] of the same compound?
A: 100%

Q: And the “Growth inhibition grade F.c” value ([18]; 1.25 mg/L)?
A: 5 (% Mycerial growth inhibition of 80% or higher)

Q: What about the “Growth inhibition grade F.c” value ([18]; 5 mg/L) of the same compound?
A: 5 (% Mycerial growth inhibition of 80% or higher)

Q: And the Protective value [3]?
A: 4 (61 to 80)

Q: And the “Growth inhibition grade R.o” value ([4]; 1.25 mg/L)?
A: 5 (% Mycerial growth inhibition of 80% or higher)

Q: And the “Growth inhibition grade R.o” value ([4]; 5 mg/L)?
A: 5 (% Mycerial growth inhibition of 80% or higher)

Q: And the “Growth inhibition grade M.n” value ([5]; 1.25 mg/L)?
A: 5 (% Mycerial growth inhibition of 80% or higher)

Q: And the “Growth inhibition grade M.n” value ([5]; 5 mg/L)?
A: 5 (% Mycerial growth inhibition of 80% or higher)

Q: And the “Growth inhibition grade U.n” value ([19]; 1.25 mg/L)?
A: 5 (% Mycerial growth inhibition of 80% or higher)

Q: And the “Growth inhibition grade U.n” value ([19]; 5 mg/L)?
A: 5 (% Mycerial growth inhibition of 80% or higher)

Q: And the “Growth inhibition grade S.s” value ([20]; 1.25 mg/L)?
A: 5 (% Mycerial growth inhibition of 80% or higher)

Q: What about the “Growth inhibition grade S.s” value ([20]; 5 mg/L) of the same compound?
A: 5 (% Mycerial growth inhibition of 80% or higher)

Q: What about the “Growth inhibition grade A.m” value ([21]; 1.25 mg/L) of the same compound?
A: 4 (% Mycerial growth inhibition of less than 80 to 60% or higher)

Q: What about the “Growth inhibition grade A.m” value ([21]; 5 mg/L) of the same compound?
A: 5 (% Mycerial growth inhibition of 80% or higher)

Q: And the “Growth inhibition grade R. sec” value ([22]; 1.25 mg/L)?
A: 5 (% Mycerial growth inhibition of 80% or higher)

Q: What about the “Growth inhibition grade R. sec” value ([22]; 5 mg/L) of the same compound?
A: 5 (% Mycerial growth inhibition of 80% or higher)

Q: What about the “Growth inhibition grade P.h” value ([23]; 1.25 mg/L) of the same compound?
A: 4 (% Mycerial growth inhibition of less than 80 to 60% or higher)

Q: What about the “Growth inhibition grade P.h” value ([23]; 5 mg/L) of the same compound?
A: 5 (% Mycerial growth inhibition of 80% or higher)

Q: What about the “Growth inhibition grade P.o” value ([24]; 1.25 mg/L) of the same compound?
A: 5 (% Mycerial growth inhibition of 80% or higher)

Q: And the “Growth inhibition grade P.o” value ([24]; 5 mg/L)?
A: 5 (% Mycerial growth inhibition of 80% or higher)

Q: And the Growth inhibition grade [7]?
A: 5 (% Mycerial growth inhibition of 80% or higher)

Q: What about the “Growth inhibition grade P.n” value ([25]; 1.25 mg/L) of the same compound?
A: 5 (% Mycerial growth inhibition of 80% or higher)

Q: What about the “Growth inhibition grade P.n” value ([25]; 5 mg/L) of the same compound?
A: 5 (% Mycerial growth inhibition of 80% or higher)
